Test results: patent publication US20100016300A1, “Imidazoacridine Compounds for Treating FLT3-Mediated Disorders” (priority 2006, published 2010)
Substitutions are numbered along the chain they refer to. Where two headings read alike, the source gives them in different places.

Experiments:
[1] = target: T1, FGFR2 (Homo sapiens, UniProt P21802); test: SelectScreen in vitro kinase screen, FGFR2; type: biochemical
T1 construct: the juxtamembrane, ATP and catalytic components projecting from the cell membrane into the cytosol have been expressed through recombinant genetic techniques; purchased Invitrogen, Inc. (SelectScreen platform)
Source text: (§1) The IC50 value is, therefore, a measure of potency. Another important feature is specificity.

[2] = target: NTRK1 (Homo sapiens, UniProt P04629); test: Kinase selectivity analysis (FIG. 4A), NTRK1; type: biochemical; conditions: in words
Source text: as §1

[3] = target: PDGFRb (Homo sapiens, UniProt P09619); test: Kinase selectivity analysis (FIG. 4A), PDGFRb; type: biochemical; conditions: in words
Procedure: (§2) Testing of the compounds described in this invention was carried out using the SelectScreen™ platform from Invitrogen, Inc. (Carlsbad, Calif., USA) and the details of its performance are readily viewed via the web by linking to: http://www.invitrogen.com/downloads/SelectScm_Brochure.pdf.
(§3) Briefly the approach is based on treating each specific kinase with a unique substrate and optical reporter system in the presence of ATP at 100 micromolar or at the apparent optimal ATP concentration for each kinase. In controls, the substrate is phosphorylated and a baseline optimal response is recorded. Graded amounts of putative inhibitor are then added in separate increments to generate a dose response curve. The latter is obtained by fitting to a sigmoid saturation equation, such as the Hill equation, and the concentration of test article producing 50 per cent inhibition is then noted as the IC50. […] The IC50 value is, therefore, a measure of potency. Another important feature is specificity. It is considered a desirable property when claiming efficacy to determine how many kinases are inhibited by the same molecule. The fewer number inhibited points toward specificity; the greater to inhibitory promiscuity.
(§4) First the compounds of this invention were tested against a subset, the primary kinase screen, to determine initial activity at 1 and 0.1 micromolar concentrations.

[4] = test system: PKC; test: Kinase selectivity analysis (FIG. 4A), PKC; type: biochemical; conditions: in words
Procedure: as §2, §3, §4

[5] = target: T2, FLT3 (Homo sapiens, UniProt P36888); test: SelectScreen in vitro kinase screen, FLT3 (Example 2); type: biochemical; conditions: for activity against FLT3: in words
T2 construct: the juxtamembrane, ATP and catalytic components projecting from the cell membrane into the cytosol have been expressed through recombinant genetic techniques; purchased Invitrogen, Inc. (SelectScreen platform)
T2 sequence (P36888 564-993 limits assumed): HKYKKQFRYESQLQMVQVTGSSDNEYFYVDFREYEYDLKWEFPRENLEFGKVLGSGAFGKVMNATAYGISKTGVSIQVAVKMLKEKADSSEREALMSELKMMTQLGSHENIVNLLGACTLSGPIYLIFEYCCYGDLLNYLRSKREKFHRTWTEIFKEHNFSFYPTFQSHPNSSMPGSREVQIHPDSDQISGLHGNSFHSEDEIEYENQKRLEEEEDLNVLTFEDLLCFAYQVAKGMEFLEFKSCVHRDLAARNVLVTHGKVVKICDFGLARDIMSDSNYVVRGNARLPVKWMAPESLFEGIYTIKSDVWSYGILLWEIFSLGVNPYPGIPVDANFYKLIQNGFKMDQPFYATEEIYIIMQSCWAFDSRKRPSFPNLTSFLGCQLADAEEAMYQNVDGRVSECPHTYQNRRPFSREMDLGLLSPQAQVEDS
Source text: as §1

[6] = target: all the other RTK's; test: SelectScreen in vitro kinase screen, other RTK and TK enzymes; type: biochemical; conditions: read-out: IC50 against all the other RTK's
Source text: as §1

[7] = target: T3, FLT3 D835Y (Homo sapiens, UniProt P36888, D835Y); test: SelectScreen in vitro kinase screen, FLT3 mutant; type: biochemical; conditions: in words
T3 construct: the juxtamembrane, ATP and catalytic components projecting from the cell membrane into the cytosol have been expressed through recombinant genetic techniques; purchased Invitrogen, Inc. (SelectScreen platform)
T3 sequence (P36888 564-993 D835Y limits assumed): T2 sequence (P36888 564-993 limits assumed) with D272Y
Source text: as §1

[8] = test system: KDR, PDGF and TRK members of the RTK family; test: SelectScreen in vitro kinase screen, closely related RTKs; type: biochemical; conditions: in words, relative to FLT3
Source text: as §1

[9] = test system: RS4(11) cells; test: Cell viability in RS4(11) cells; type: cell-based, human
Source text: (§5) It is now understood that an important subset of human myeloid leukemia cells overexpress FLT3 as constitutively activated mutations. The most prevalent of these is the internal tandem duplication. Two cell lines commonly used to test the potency of FLT3 inhibitors on cell growth and viability are the RS4(11) and MV4(11). The RS4(11) cell line, also known as RS4;11, was established from a bone marrow patient with acute lymphoblastic leukemia. This patient was […]. The cells lack surface and cytoplasmic immunoglobulin, and are negative for CD10. The cells have a characteristic chromosome translocation (4;11)(q21;q23), and an isochromosome for the long arm of chromosome 7. These cells express the wild-type FLT3 receptor and are further characterized by expression of the MHC Class II antigens (HLA DR+); CD9+; CD24+. The MV4(11) cell line, also known as MV-4-11, was established from the blast cells of a person with biphenotypic B myelomonocytic leukemia (ATCC). Other sources indicate this cell line is derived from acute monocytic leukemia (AML FAB M5). […] These cells express a mutant form of FLT3 containing an internal tandem duplication (ITD), and are further characterized by expression of CD4 (40-96%); CD10 (4-11%); CD15 (96-99%). […]

[10] = test system: MV4(11) cells; test: Cell viability in MV4(11) cells; type: cell-based, human; conditions: FLT3 ITD, compared with PKC412
Source text: as §5

[11] = test system: Experimental Autoimmune Encephalomyelitis (EAE); test: Experimental autoimmune encephalomyelitis (EAE) in mice; type: in vivo, C57BL/6 mice; conditions: oral, from day 5: 10 mg/kg every 24 hrs, 20 mg/kg every 48 hrs, 30 mg/kg every 72 hrs; versus vehicle controls
Procedure: The EAE preparation used to test the efficacy of the imidazoacridinone analogs of the present invention followed a similar protocol as described by Small et al. (Patent Application WO 2006/020145 A2, 23 Feb. 2006) and was conducted by MD Biosciences, a contract research organization that provides in vivo and in vitro disease models as well as mode of action studies for general inflammatory screening, arthritis, IBD, and multiple sclerosis. C57BL/6 mice were immunized with proteolipid protein emulsified in Complete Freund's Adjuvant on day 0 of the study. After a booster with pertussis toxin also on day 0 and then on day 2, the mice were treated on day 5 after disease induction with three oral dosing schedules of XF-2, at 10 mg/kg every 24 hrs, 20 mg/kg every 48 hrs and 30 mg/kg every 72 hrs.

[12] = test system: HL-60 leukemia; test: Growth arrest in HL-60 leukemia; conditions: Homo sapiens, HL-60, read-out: EC50 growth arrest
Procedure: When standard protocols for adherent cell culture are followed, according to the instructions supplied by the American Type Culture Collection for the two line, the cell will proliferate with an approximate 30 hour doubling time.

[13] = target: T2, FLT3; test: SelectScreen in vitro dose response assay against FLT3 (Example 7); type: biochemical; conditions: ATP at 100 micromolar; 4 parameter Hill equation
Procedure: The terms “IC50” and “EC50” are used interchangeably. As used herein, “EC50” refers to nMolar concentration at median percent inhibition determined by dose respose (DR) assay. As used herein, the term “E1000” refers to percent inhibition at 1000 nMolar determined by assay. EC50 was calculated based on dose response curve was fitted to 4 parameter Hill equation.
The compounds were then re-tested by adding graded amounts of putative inhibitor which were added in 5 separate increments to generate a dose response curve. The latter is obtained by fitting to a 4 parameter Hill equation, a sigmoid saturation equation.
The 2× FLT3/Tyr 02 peptide mixture was prepared in 50 mM HEPES pH 7.5, 0.01 BRIJ-35, 10 mM MgCl2, 1 mM EGTA. The final 10 uL kinase reaction consists of 0.6-76.0 ng FLT3 and 2 uM Tyr 02 peptide in 50 mM HEPES pH 7.5, 0.01% BRIJ-35, 10 mM Mg Cl2, 1 mM EGTA. After 1 hour kinase reaction incubation, 5 uL of a 1:64 dilution of development reagent A was added.

[14] = read-out: IC50 as FLT3 inhibitors (FIG. 3)

T1 sequence (P21802 399-821 limits assumed): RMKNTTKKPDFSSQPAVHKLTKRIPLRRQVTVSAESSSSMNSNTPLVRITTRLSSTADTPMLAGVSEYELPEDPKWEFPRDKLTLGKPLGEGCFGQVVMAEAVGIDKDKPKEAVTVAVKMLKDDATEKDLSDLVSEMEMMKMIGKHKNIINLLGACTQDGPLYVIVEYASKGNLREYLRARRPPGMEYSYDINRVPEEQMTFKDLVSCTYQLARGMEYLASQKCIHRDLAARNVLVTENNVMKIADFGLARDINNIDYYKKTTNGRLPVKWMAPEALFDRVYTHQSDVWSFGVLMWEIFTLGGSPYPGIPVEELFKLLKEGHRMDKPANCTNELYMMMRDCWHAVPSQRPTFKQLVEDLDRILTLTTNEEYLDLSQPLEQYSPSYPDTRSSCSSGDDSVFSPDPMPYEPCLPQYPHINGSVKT
Chain of NTRK1 (P04629 33-796): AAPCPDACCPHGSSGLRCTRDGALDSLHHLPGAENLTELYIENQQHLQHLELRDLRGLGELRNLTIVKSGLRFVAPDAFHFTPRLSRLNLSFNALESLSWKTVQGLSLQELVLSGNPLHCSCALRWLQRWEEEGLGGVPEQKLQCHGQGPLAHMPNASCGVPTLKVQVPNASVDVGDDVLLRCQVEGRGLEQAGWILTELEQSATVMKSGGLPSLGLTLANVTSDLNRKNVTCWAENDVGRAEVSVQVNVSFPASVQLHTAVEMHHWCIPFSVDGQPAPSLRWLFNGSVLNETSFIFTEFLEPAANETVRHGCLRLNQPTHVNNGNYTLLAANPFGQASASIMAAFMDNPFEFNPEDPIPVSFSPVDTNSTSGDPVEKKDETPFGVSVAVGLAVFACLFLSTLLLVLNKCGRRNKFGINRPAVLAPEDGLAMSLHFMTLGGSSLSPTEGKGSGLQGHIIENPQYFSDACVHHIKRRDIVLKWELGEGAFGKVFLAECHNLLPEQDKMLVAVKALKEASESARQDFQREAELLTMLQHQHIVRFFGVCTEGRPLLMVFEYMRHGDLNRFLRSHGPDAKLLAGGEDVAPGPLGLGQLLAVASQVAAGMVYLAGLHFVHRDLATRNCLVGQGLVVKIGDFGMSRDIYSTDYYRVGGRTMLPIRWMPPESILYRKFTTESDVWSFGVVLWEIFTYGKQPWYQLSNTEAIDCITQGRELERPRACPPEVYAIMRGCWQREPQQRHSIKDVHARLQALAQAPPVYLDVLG
Chain of PDGFRb (P09619 33-1106): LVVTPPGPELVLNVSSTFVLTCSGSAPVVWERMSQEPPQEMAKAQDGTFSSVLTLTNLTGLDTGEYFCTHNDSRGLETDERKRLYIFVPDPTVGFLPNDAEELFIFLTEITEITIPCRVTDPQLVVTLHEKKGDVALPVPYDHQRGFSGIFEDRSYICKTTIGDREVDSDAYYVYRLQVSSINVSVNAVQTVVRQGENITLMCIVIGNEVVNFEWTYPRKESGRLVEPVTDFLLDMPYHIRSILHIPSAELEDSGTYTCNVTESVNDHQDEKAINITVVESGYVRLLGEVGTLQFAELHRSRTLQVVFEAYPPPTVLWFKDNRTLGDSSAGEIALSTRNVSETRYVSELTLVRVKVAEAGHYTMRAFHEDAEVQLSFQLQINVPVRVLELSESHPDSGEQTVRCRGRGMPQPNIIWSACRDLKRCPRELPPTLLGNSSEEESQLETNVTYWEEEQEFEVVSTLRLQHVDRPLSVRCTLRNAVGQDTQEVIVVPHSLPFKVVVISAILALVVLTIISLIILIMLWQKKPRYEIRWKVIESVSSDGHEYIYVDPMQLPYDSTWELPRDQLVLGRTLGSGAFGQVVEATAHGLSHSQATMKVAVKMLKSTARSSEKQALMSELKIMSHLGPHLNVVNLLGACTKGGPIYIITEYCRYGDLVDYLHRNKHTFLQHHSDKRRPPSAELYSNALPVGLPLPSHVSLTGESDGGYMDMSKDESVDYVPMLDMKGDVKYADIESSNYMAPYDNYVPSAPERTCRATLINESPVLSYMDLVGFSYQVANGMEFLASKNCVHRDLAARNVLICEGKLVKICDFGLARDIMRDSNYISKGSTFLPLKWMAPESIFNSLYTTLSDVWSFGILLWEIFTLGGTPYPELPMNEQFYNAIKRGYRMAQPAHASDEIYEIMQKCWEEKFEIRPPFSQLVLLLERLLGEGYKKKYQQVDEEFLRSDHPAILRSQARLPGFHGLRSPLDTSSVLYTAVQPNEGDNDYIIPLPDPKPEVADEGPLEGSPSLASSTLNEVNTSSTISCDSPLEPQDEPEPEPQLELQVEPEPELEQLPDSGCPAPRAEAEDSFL

In the case of `C[C@]12O[C@H](C[C@]1(O)CO)n1c3ccccc3c3c4c(c5c6ccccc6n2c5c31)CNC4=O` [CEP-701, reference compound], the “inhibition of FGFR2” value ([1]; in words, FIG. 4A) is reported as “inhibits” and the “inhibition of NTRK1” value [2] is reported as “inhibits”.
`CO[C@@H]1[C@H](N(C)C(=O)c2ccccc2)C[C@H]2O[C@]1(C)n1c3ccccc3c3c4c(c5c6ccccc6n2c5c31)C(=O)NC4` [PKC-412] was tested, and the “cross-reaction with PDGFRb” value [3] was “cross-reacts” and the “cross-reaction with PKC” value [4] was “cross-reacts”.
With `CCN(CC)CCNc1ccc2ncn3c4ccc(O)cc4c(=O)c1c23` [XF-2] the “activity against FLT3” value [5] was “active”, the IC50 ([5]; read-out: IC50 against FLT3) was roughly 10 nM and the IC50 [5, 14] was 8 nM. The “drop of inhibitory activity on FGFR2 relative to FLT3, in EC50 value” ([1]; FGFR2 versus FLT3) was 100 fold, the IC50 ([1]; read-out: IC50 against FGFR2) was greater than 2000 nM and the IC50 [6] was greater than 5000 nM. For the same compound, the “activity against FLT3 mutant form” value [7] was “active”, the “inhibitory activity against KDR, PDGF and TRK members of the RTK family” value (from here on “inhibitory activity against KDR”) [8] was “many fold less pronounced” and the EC50 ([9]; Homo sapiens, read-out: effective concentration to decrement cell viability by 50% (EC50), 72 hrs of continuous exposure) was 34 nM. The “cell viability potency, in words” value [10] was “closely matched”, the clinical scores [11] was “lower clinical scores” and the EC50 [12] was greater than 10000 nM.
In the case of `O=c1c2cc(O)ccc2n2cnc3ccc(NCCN4CCOCC4)c1c32` [XF-22], the “activity against FLT3” value [5] is reported as “active”, the IC50 [5, 14] is reported as 12 nM and the “activity against FLT3 mutant form” value [7] is reported as “active”. For the same compound, the “inhibitory activity against KDR” value [8] was “many fold less pronounced”, the “EC50 cell viability, in words” value ([9]; 72 hrs, compared with PKC-412) was “closer to the micromolar mark” and the “cell viability potency, in words” value [10] was “less activity”. It also gave an EC50 [12] greater than 10000 nM.
`CN(C)CCNc1ccc2ncn3c4ccc(O)cc4c(=O)c1c23` [XF-0025] showed an EC50 [13] of 25 nM.
`O=c1c2cc(O)ccc2n2cnc3ccc(NCCCN4CCOCC4)c1c32` [XF-0113] was tested, and the “activity against FLT3” value [5] was “active”, the “activity against FLT3 mutant form” value [7] was “active” and the “inhibitory activity against KDR” value [8] was “many fold less pronounced”. The EC50 [13] was 50 nM.
Work on `O=c1c2c(NCCN3CCOCC3)ccc3ncn(c4ccc5[nH]ncc5c14)c32` [XF-0122] yielded an EC50 [13] of 51 nM.
In the case of `O=c1c2cc(O)ccc2n2cnc3ccc(NCCN4CCCC4)c1c32` [XF-0241], the EC50 [13] is reported as 50 nM.
With `CN(C)CCNc1ccc2ncn3c4ccccc4c(=O)c1c23` [XF-0308] the EC50 [13] was 133 nM.
Compound `O=c1c2ccccc2n2cnc3ccc(NCCNCCO)c1c32` [XF-0328] has an EC50 [13] of 135 nM.
